pKi: −log10 of the molar value. Structures can show the parent of a compound that is named as a salt. Where two headings read alike, the source gives them in different places.
Legend:
[1] = target: Human Cortex or Human recombinant 5-HT2A (Homo sapiens (Human), UniProt P28223); experiment: Serotonin 5HT2A radioligand binding assay; details: for Ki: hydrochloride
Human recombinant 5-HT6 = Human recombinant 5-HT6 (Homo sapiens (Human), UniProt P50406); experiment: Serotonin 5HT6 radioligand binding assay
Human recombinant 5-HT6, sequence (P50406 whole entry): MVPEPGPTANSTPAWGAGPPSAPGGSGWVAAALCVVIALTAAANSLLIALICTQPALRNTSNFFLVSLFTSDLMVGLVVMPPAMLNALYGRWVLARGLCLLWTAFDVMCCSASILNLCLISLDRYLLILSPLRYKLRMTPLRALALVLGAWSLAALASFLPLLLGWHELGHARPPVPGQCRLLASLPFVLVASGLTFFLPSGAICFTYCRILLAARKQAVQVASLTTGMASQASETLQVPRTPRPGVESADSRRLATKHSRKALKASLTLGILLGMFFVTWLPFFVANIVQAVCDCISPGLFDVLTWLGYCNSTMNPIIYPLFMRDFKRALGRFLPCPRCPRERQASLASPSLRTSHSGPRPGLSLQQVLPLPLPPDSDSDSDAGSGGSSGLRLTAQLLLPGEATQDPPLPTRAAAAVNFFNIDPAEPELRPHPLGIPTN

Human recombinant 5-HT2B = Human recombinant 5-HT2B (Homo sapiens (Human), UniProt P41595); experiment: Serotonin 5HT2B radioligand binding assay
Human recombinant 5-HT2B, sequence (P41595 whole entry): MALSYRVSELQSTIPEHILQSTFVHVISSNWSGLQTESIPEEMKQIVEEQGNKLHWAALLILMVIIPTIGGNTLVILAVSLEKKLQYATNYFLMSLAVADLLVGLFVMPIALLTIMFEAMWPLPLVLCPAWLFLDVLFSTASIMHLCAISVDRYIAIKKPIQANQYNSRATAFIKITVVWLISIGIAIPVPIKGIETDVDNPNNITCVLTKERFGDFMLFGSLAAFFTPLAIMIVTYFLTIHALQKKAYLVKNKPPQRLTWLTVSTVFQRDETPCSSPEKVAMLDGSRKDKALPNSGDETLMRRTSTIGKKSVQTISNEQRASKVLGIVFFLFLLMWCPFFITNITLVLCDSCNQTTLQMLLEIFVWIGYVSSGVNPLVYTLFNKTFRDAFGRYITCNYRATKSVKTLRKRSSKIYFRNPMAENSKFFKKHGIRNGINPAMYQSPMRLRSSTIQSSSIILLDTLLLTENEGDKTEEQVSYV

Human recombinant 5-HT7 = Human recombinant 5-HT7 (Homo sapiens (Human), UniProt P34969); experiment: Serotonin 5HT7 radioligand binding assay
Human recombinant 5-HT7, sequence (P34969 whole entry): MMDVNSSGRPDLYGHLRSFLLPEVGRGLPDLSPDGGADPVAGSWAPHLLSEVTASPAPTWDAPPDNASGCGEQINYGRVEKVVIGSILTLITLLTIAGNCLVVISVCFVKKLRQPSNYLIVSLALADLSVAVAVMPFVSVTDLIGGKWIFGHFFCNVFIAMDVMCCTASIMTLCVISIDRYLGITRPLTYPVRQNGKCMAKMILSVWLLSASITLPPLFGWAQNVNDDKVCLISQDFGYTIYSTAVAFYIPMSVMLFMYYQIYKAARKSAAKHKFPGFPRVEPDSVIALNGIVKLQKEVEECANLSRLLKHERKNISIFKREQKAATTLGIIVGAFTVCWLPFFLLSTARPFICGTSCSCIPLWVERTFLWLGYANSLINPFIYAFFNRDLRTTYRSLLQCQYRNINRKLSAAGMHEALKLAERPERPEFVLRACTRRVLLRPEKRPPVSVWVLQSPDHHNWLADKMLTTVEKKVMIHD

[2] = test system: Sugen-Hypoxia (SuHx) induced pulmonary arterial hypertension (PAH) in rats; experiment: Sugen-hypoxia (SuHx) induced pulmonary arterial hypertension rat model; type: in vivo; details: for Body Weight gain / Diastolic pulmonary pressure / Lung weight / Mean pulmonary pressure / Oxygen saturation / Respiratory resistance / Right systolic ventricular pressure / Systolic pulmonary pressure: SuHx rat, Day 14 to Day 34, Day 35
Source text: The assay was designed to measure the pulmonary arterial blood pressures in anaesthetized rats with PAH induced by a single subcutaneous dose of Sugen combined with three weeks in hypoxia. Combined with a macroscopic and morphometric histological examination of the tissues harvested from the animals, the results of the provide a quantitative measurement of the progression of the disease on the systemic arterial blood pressure, pulmonary arterial blood pressure, as well as wet organ weight and vascular remodeling in rats with SuHx-induced PAH treated with test article, vehicle, or reference compound.
Male Wistar-Kyoto rats (Charles River Laboratories) weighing between 200 and 250 grams (approximately 10-12 week-old) were randomized across experimental groups according to their body weight, with the aim of scheduling one rat per treatment group for each day of terminal surgery (when possible). […] Rats from Groups 2 to 4 (see Table 3) received a single subcutaneous injection of sugen (20 mg/kg) in DMSO on Day 0 and returned to their cages. Rats from Group 1 received one subcutaneous injection of DMSO (vehicle for sugen) on Day 0 and returned to their respective cages. Groups 2-4 were placed in cages for which the controlled air was adjusted to receive a FiO2 equivalent to 0.10 (10%) using a mixture of nitrogen and ambient air controlled by the ventilated cage system. They were kept under these hypoxic conditions for 21 days. While in hypoxia, cages were cleaned and changed every 48 hours, exposing the animals to ambient oxygen levels for less than 5 minutes per cleaning session. The animals were then exposed to ambient oxygen levels from Day 22 to Day 35. Group 1 animals remained in cages exposed to ambient oxygen levels for 35 days. The animals were observed on a daily basis for any changes in their behavior and general health status. […] Food and water were given ad libitum. Daily observation of the behavior and general health status of the animals was done. Weekly blood draws and body weights were taken. On the day of surgery, the rats were anaesthetized, instrumented and hemodynamic parameters (systemic arterial blood pressure, right ventricular blood pressure, pulmonary arterial blood pressure, oxygen saturation, respiratory resistance, ventilatory pressure, respiration rate and heart rate) were recorded continuously for 5 minutes or until loss of quality in the pulmonary arterial pressure signal, whichever came first. The recordings included moving the pressure transducer from the right ventricular cavity to the pulmonary artery and back, observing the very clear transitions in diastolic pressures and general pressure waveforms as the catheter entered the artery, and was withdrawn into the ventricle. The rats were then exsanguinated and the pulmonary circulation was flushed with 0.9% NaCl. The trachea, lungs and heart were removed as a whole from the thoracic cavity. The right and left lobes of the lung were weighed before being perfused with 10% NBF and immersed in 10% formalin. The lungs were stored in 10% formalin at room temperature. The heart was excised to measure the wet weights of the right ventricle (RV) and left ventricle including the septum (LV-S) as part of the Fulton index calculation.
Mean arterial blood pressure values and Fulton's index were calculated using the following formula as described above in Example 2. The study results are described in Table 4.

[3] = test system: monocrotaline-induced pulmonary arterial hypertension (PAH) in rats; experiment: Monocrotaline (MCT) induced pulmonary arterial hypertension rat model; type: in vivo; details: for Body Weight gain / Diastolic pulmonary pressure / Lung weight / Mean pulmonary pressure / Oxygen saturation / Respiratory resistance / Right systolic ventricular pressure / Systolic pulmonary pressure: MCT rat, Day 0 to Day 27, Day 28
Source text: The purpose of this study was to assess the effect of the test articles on the monocrotaline-induced pulmonary arterial hypertension (PAH) in rats. The assay was designed to measure the pulmonary and systemic arterial blood pressures in anaesthetized rats with PAH induced by a single subcutaneous dose of monocrotaline. The results of the study are a quantitative measurement of the progression of the disease and its effects on the pulmonary arterial blood pressure (PAP), as well as wet organ weight in rats with induced PAH with and without treatment with test article or reference compound. Furthermore, a detailed morphometric and clinical investigation of the histology of the pulmonary vasculature was performed to correlate vascular remodeling with the functional impact of the onset of the PAH.
Male Wistar-Kyoto rats (Charles River Laboratories) weighing between 200 and 250 grams (approximately 10-12 week-old) were randomized across experimental groups, according to their body weight, with the aim of scheduling one animal per treatment group for each day of terminal surgery (when possible). […] Rats from treatment groups 2 to 4 received one subcutaneous injection of monocrotaline (MCT) solution (60 mg/kg) in DMSO on Day 0 and were returned to their cages. Rats from control group 1 received one subcutaneous injection of DMSO (vehicle for monocrotaline) on Day 0 and were returned to their respective cages. […] Food and water were given ad libitum. Daily observations of the behavior and general health status of the animals were done. Weekly blood draw, body weight and body temperature were taken.
On the day of surgery, the rats were anaesthetized, instrumented and hemodynamic parameters (systemic arterial blood pressure, right ventricular blood pressure, pulmonary arterial blood pressure, oxygen saturation, respiratory resistance, ventilatory pressure, respiration rate and heart rate) were recorded continuously for 5 minutes or until loss of quality in the pulmonary arterial pressure signal, whichever came first. The recordings included moving the pressure transducer from the right ventricular cavity to the pulmonary artery and back, observing the very clear transitions in diastolic pressures and general pressure waveforms as the catheter entered the artery, and was withdrawn into the ventricle. The rats were then exsanguinated and the pulmonary circulation was flushed with 0.9% NaCl. The trachea, lungs and heart were removed as a whole from the thoracic cavity. The right and left lobes of the lung were weighed before being perfused with 10% NBF and immersed in 10% formalin. The lungs were stored in 10% formalin at room temperature. The heart was excised to measure the wet weights of the right ventricle (RV) and left ventricle including the septum (LV-S) as part of the Fulton index calculation. Arterial blood pressure was recorded continuously throughout the experiment via an intra-arterial fluid-filled catheter (AD Instruments, Colorado Springs, Colo., USA). Diastolic and systolic pressures values were measured in mmHg using cursors readings in the Clampfit 10.2.0.14. Mean arterial blood pressure values were calculated using the following formula:
[formula] Values are presented as means±SEM (standard error of the means). Repeat unpaired Student's t-tests were performed in Microsoft Excel 2007 on all experimental conditions, comparing treatment groups to either the control, healthy animals, or the negative control animals (monocrotaline only). Differences were considered significant when p≤0.05. The study results are described in Table 2.

Human recombinant D2S = Human recombinant D2S (Homo sapiens (Human), UniProt P14416); experiment: Dopamine D2S radioligand binding assay
Human recombinant D2S, sequence (P14416 other isoform, or with tags, fused parts or gaps): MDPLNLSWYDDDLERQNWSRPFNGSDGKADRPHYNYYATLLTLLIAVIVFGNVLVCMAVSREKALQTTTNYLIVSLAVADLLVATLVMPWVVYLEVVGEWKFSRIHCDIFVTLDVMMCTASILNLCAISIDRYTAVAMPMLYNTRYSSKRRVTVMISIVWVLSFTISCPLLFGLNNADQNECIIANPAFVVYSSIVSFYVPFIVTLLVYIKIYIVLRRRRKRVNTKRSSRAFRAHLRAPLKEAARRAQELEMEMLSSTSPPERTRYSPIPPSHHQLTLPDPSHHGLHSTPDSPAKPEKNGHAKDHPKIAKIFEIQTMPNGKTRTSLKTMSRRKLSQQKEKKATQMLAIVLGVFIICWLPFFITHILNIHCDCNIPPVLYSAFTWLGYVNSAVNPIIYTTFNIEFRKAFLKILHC

Human recombinant 5-HT1A = Human recombinant 5-HT1A (Homo sapiens (Human), UniProt P08908); experiment: Serotonin 5HT1A radioligand binding assay

Human Cortex or Human recombinant 5-HT2A, sequence (P28223 whole entry): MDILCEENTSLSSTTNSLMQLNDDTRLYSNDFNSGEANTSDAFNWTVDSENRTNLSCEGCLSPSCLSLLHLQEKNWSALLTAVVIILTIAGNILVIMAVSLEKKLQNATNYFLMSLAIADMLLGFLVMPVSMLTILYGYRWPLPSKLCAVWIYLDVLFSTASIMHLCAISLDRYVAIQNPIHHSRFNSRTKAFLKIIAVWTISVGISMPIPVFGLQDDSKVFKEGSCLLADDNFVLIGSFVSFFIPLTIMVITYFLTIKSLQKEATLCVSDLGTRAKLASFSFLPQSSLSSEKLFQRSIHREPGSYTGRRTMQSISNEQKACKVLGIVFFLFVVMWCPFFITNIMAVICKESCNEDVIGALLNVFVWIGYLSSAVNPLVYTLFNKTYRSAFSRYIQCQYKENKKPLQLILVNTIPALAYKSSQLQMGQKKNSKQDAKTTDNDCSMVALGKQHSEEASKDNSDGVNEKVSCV

O=C1COc2ccc(OCCCCN3CCN(c4cccc(Cl)c4Cl)CC3)cc2N1 [Compound B, 6-(4-(4-(2,3-dichlorophenyl)piperazin-1-yl)butoxy)-2H-benzo[b][1,4]oxazin-3(4H)-one hydrochloride]
Ki [1]: 2.50 nM | Ki ([1]; listed as compound B): 2.5 nM | pKi (Human recombinant 5-HT6): 7.29 | pKi (Human recombinant 5-HT2B): 9.72 | pKi (Human recombinant 5-HT7): 8.57 | efficacy for PAH ([2]; SuHx induced PAH rat model, summary statement): demonstrated efficacy for PAH | Body Weight gain ([2]; 10 mg/kg bid oral gavage): 66.7 g | Diastolic pulmonary pressure ([2]; 10 mg/kg bid oral gavage): 15.3 mmHg | Lung weight ([2]; 10 mg/kg bid oral gavage): 0.65% | Mean pulmonary pressure ([2]; 10 mg/kg bid oral gavage): 20.9 mmHg | Oxygen saturation ([2]; 10 mg/kg bid oral gavage): 95.9% | Respiratory resistance ([2]; 10 mg/kg bid oral gavage): 12.4 | Right systolic ventricular pressure ([2]; 10 mg/kg bid oral gavage): 32.8 mmHg | Systolic pulmonary pressure ([2]; 10 mg/kg bid oral gavage): 32.2 mmHg | Body Weight gain ([2]; 20 mg/kg bid oral gavage): 50.8 g | Diastolic pulmonary pressure ([2]; 20 mg/kg bid oral gavage): 14.7 mmHg | Lung weight ([2]; 20 mg/kg bid oral gavage): 0.62% | Mean pulmonary pressure ([2]; 20 mg/kg bid oral gavage): 20.4 mmHg | Oxygen saturation ([2]; 20 mg/kg bid oral gavage): 96.9% | Respiratory resistance ([2]; 20 mg/kg bid oral gavage): 11.1 | Right systolic ventricular pressure ([2]; 20 mg/kg bid oral gavage): 34.2 mmHg | Systolic pulmonary pressure ([2]; 20 mg/kg bid oral gavage): 32.0 mmHg | severity of PAH (right ventricular hypertrophy, pulmonary artery pressure, respiratory resistance) ([2]; SuHx, summary statement): decreasing the severity of PAH | efficacy for PAH ([3]; MCT induced PAH rat model, summary statement): demonstrated efficacy for PAH | Body Weight gain ([3]; 3 mg/kg bid oral gavage): 22.9 g | Diastolic pulmonary pressure ([3]; 3 mg/kg bid oral gavage): 19.2 mmHg | Lung weight ([3]; 3 mg/kg bid oral gavage): 0.86% | Mean pulmonary pressure ([3]; 3 mg/kg bid oral gavage): 32.0 mmHg | Oxygen saturation ([3]; 3 mg/kg bid oral gavage): 93.5% | Respiratory resistance ([3]; 3 mg/kg bid oral gavage): 15.7 | Right systolic ventricular pressure ([3]; 3 mg/kg bid oral gavage): 58.4 mmHg | Systolic pulmonary pressure ([3]; 3 mg/kg bid oral gavage): 57.7 mmHg | Body Weight gain ([3]; 10 mg/kg bid oral gavage): 23.1 g | Diastolic pulmonary pressure ([3]; 10 mg/kg bid oral gavage): 14.7 mmHg | Lung weight ([3]; 10 mg/kg bid oral gavage): 0.86% | Mean pulmonary pressure ([3]; 10 mg/kg bid oral gavage): 24.1 mmHg | Oxygen saturation ([3]; 10 mg/kg bid oral gavage): 96.5% | Respiratory resistance ([3]; 10 mg/kg bid oral gavage): 10.7 | Right systolic ventricular pressure ([3]; 10 mg/kg bid oral gavage): 43.1 mmHg | Systolic pulmonary pressure ([3]; 10 mg/kg bid oral gavage): 43.0 mmHg | severity of PAH (right ventricular hypertrophy, pulmonary artery pressure, respiratory resistance) ([3]; MCT, summary statement): decreasing the severity of PAH

6-(4-(4-(2-methoxyphenyl)piperazin-1-yl)butoxy)-2H-benzo[b][1,4]oxazin-3(-4H)-one hydrochloride [Compound A]
pKi [1]: 6.93 | pKi (Human recombinant D2S): 9.52 | pKi (Human recombinant 5-HT1A): 9.19
